This note sets out measurements from paper PMC8972088 (Bioorganic & medicinal chemistry, 2021).

For series [1], the target named is T1, GSK-3β (Homo sapiens, UniProt P49841). As to the kind of experiment: PhosphoSens real-time kinase assay, wild type GSK-3β. The series is classed as biochemical. Conditions: for increase in potency with preincubation: 3-hour preincubation vs no preincubation.
A further series deals with GSK-3β C199A mutant (Homo sapiens, UniProt P49841, C199A). Put plainly: PhosphoSens kinase assay, GSK-3β C199A mutant. The class given is biochemical. To be noted: C199A vs wild type GSK-3β.
GSK-3β C199A mutant, sequence (P49841 whole entry C199A): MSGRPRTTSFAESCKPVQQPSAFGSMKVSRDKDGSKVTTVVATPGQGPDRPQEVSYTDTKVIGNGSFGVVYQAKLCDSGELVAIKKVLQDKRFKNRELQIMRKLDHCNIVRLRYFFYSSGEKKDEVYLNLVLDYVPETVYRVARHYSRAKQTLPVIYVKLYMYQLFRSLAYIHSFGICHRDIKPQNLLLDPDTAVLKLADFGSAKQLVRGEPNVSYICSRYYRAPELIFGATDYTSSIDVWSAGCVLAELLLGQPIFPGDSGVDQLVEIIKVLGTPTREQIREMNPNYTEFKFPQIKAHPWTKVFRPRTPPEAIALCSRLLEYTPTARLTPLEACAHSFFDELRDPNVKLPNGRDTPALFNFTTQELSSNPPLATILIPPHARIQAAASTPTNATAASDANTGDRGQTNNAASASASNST
The target in the next series is KDR (VEGFR2) (Homo sapiens, UniProt P35968). As to the kind of experiment: Kinase panel screen, Z'-LYTE. The series is classed as biochemical. Conditions: read-out: Inhibition KDR (VEGFR2).
KDR (VEGFR2), sequence (P35968 20-1356): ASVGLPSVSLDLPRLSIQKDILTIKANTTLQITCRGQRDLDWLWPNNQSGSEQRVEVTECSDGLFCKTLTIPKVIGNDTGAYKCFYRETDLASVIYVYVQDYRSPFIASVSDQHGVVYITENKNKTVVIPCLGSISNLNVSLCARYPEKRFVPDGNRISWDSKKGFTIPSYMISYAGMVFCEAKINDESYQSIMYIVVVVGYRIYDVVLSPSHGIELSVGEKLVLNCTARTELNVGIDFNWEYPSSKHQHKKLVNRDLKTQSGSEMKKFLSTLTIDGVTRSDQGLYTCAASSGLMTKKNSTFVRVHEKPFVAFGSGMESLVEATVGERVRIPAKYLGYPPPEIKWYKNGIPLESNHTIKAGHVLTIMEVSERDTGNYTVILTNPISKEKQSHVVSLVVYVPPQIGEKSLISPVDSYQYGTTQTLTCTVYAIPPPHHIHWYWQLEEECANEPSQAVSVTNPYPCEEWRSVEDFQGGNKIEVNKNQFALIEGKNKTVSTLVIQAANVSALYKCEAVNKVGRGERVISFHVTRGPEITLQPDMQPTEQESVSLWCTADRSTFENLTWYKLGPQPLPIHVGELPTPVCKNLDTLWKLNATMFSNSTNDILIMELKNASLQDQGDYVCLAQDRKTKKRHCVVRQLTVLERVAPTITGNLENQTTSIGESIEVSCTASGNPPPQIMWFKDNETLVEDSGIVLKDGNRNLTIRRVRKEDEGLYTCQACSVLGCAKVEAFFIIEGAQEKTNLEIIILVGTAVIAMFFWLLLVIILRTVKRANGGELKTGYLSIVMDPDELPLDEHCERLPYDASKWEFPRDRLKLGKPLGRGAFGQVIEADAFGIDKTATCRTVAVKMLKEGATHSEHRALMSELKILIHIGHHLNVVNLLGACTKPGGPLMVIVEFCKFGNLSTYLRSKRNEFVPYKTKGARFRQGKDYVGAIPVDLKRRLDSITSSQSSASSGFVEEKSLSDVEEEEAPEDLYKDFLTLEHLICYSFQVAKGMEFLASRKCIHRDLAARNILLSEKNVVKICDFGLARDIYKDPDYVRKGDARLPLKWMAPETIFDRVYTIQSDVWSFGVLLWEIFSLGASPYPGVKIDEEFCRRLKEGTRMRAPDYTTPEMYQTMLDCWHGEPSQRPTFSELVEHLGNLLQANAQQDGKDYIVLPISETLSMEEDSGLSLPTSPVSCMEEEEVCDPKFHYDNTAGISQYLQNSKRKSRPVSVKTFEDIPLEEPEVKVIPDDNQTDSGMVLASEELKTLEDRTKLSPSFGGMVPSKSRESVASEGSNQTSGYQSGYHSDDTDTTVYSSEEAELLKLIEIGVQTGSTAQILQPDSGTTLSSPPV
Another series has as its target T2, MAPKAPK5 (PRAK) (Homo sapiens, UniProt Q8IW41).
T2 sequence (Q8IW41 1-473): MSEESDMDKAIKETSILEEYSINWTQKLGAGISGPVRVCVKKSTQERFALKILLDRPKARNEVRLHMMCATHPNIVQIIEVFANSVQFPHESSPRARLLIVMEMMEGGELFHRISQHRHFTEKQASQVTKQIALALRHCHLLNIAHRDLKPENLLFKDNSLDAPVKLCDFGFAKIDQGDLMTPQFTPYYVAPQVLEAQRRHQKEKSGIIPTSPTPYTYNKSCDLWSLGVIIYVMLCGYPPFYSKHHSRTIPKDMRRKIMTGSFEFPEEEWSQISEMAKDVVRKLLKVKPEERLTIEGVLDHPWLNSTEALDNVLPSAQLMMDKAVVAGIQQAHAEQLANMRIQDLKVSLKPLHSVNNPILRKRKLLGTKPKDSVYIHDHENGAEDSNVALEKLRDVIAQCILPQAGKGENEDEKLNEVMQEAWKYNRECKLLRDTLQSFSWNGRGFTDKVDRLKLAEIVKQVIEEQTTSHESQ
As to the kind of experiment: Kinase panel screen, Z'-LYTE. The series is classed as biochemical. Conditions: read-out: Inhibition MAPKAPK5 (PRAK), 2 μM COB-187, ATP Km, ±SD n=2.

Series [2] concerns the target T1, GSK-3β. As to the kind of experiment: GSK-3β kinase assay in presence of reducing agents. To be noted: inhibitor 10 μM; for effect of reducing agents on potency: 2 mM DTT, GSH or TCEP, 84 min.
Series [3] in a line: Reaction of COB-187 with ethanethiol and tributylphosphine in THF. The class given is physicochemical. To be noted: room temperature to reflux, HPLC and 1H-NMR.
Series [4] addresses T1, GSK-3β. Put plainly: Jump dilution assay. The series is classed as biochemical. Conditions: 3-hour pre-incubation with 50 nM GSK-3β, 100-fold dilution; 2 mM ATP.

SMILES strings stand for the structures. Some results are limits rather than exact numbers.

T1 sequence (P49841 whole entry): as the sequence (P49841 whole entry C199A) above, with A199C counted along it

Take `OC1(c2ccccc2)CSC(=S)N1Cc1ccncc1` (centres unmarked) [COB-187, 4-hydroxy-4-phenyl-3-(pyridin-4-ylmethyl)thiazolidine-2-thione]: the “increase in potency with preincubation” value on GSK-3β [1] is given as less than 4 fold. Also, at GSK-3β [1] (average of five replicates, ± SD), the “average k4 from fit of kobs vs concentration to Eq. 8 (induced-fit)” value is recorded as 2.9 × 10^−4 (±4.8 × 10^−4 SD) 1/min. Further, the “decrease in potency for the mutant versus wild type” value on GSK-3β C199A mutant is listed as more than 300 fold. Further, the inhibition – broadly, how much of the control response was suppressed – at 2 µM at KDR (VEGFR2) was 8 ± 8.2%; at MAPKAPK5 (PRAK) it was approximately 64%. Also, the “effect of reducing agents on potency” value on GSK-3β [2] is recorded as “significantly diminished”. Moreover, the “reaction with ethanethiol and tributylphosphine” value in series [3] is recorded as “no evidence of any reaction”.

On to `O=C1Cc2c([nH]c3ccc([N+](=O)[O-])cc23)-c2ccccc2N1` [Alsterpaullone], for which the “increase in potency with preincubation” value at GSK-3β [1] is “no significant increase”. Moreover, the “recovery of GSK-3β activity upon jump dilution” value at GSK-3β [4] is “recovered most of its activity upon dilution”.

Take `COc1cc(O)c2c(c1)[C@H]1O[C@@H]1C[C@H](O)[C@H](O)C(=O)/C=C\C[C@H](C)OC2=O` [Hypothemycin]: at GSK-3β [1], the “increase in potency with preincubation” value is given as ~ 17 fold. Also, the “recovery of GSK-3β activity upon jump dilution” value on GSK-3β [4] is reported as “did not recover activity upon jump dilution”. Moreover, the “effect of reducing agents on potency” value on GSK-3β [2] is given as “significantly diminished”.

As for `COc1ccc(CNC(=O)Nc2ncc([N+](=O)[O-])s2)cc1` [AR-A014418], the “effect of DTT or GSH on potency” value on GSK-3β [2] (2 mM DTT or GSH) is listed as “not significantly altered”. Further, the “effect of TCEP on potency” value on GSK-3β [2] (2 mM TCEP) is reported as “significant but modest reduction”.
